Data from ChEMBL document CHEMBL1153018, “Synthesis of pochoxime prodrugs as potent HSP90 inhibitors” (Bioorg Med Chem Lett, 2009).
The source made the active and inactive calls. The rule behind the calls is not given here.

Tests used:
[1] = target: Heat shock protein HSP 90-alpha (Homo sapiens) (UniProt P07900); test: Binding affinity to human HSP90alpha at < 10 uM
[2] = Aqueous solubility of the compound; type: physicochemical
[3] = Drug level in mouse liver at 4 mg/kg, iv; type: ADME, organism-based; set-up: dose 4 mg/kg, route intravenous
[4] = tested on: Liver; test: Drug level in mouse liver at 30 mg/kg, po; type: ADME, organism-based; set-up: dose 30 mg/kg, route oral; settings: in vivo
[5] = target: Heat shock protein HSP 90-alpha (Homo sapiens) (UniProt P07900)
[6] = tested on: BT-474; test: Growth inhibition of human BT474 cells assessed as ATP level after 4 days; type: functional; settings: BT-474, 96 h
[7] = tested on: NCI-N87; test: Growth inhibition of human NCI-N87 cells assessed as ATP level after 4 days; type: functional; settings: NCI-N87, 96 h
[8] = tested on: MDA-MB-468; test: Growth inhibition of human MDA-MB-468 cells assessed as ATP level after 4 days; type: functional; settings: MDA-MB-468, 96 h
[9] = Growth inhibition of human tarceva and iressa-resistant HCC827 cells assessed as ATP level after 4 days; type: functional; settings: HCC827, 96 h
[10] = tested on: Mus musculus; test: Toxicity in ICR-SCID mouse heart assessed as cholesterol level at 75 mg/kg administered 3 times per week for 4 weeks measured after 24 hrs of last dose relative to untreated control; type: organism-based; set-up: dose 75 mg/kg; settings: in vivo
[11] = tested on: K562; test: Growth inhibition of human K562 cells assessed as ATP level after 4 days; type: functional; settings: K562, 96 h
[12] = tested on: Mus musculus; test: Toxicity in ICR-SCID mouse kidney assessed as creatinine level at 75 mg/kg administered 3 times per week for 4 weeks measured after 24 hrs of last dose relative to untreated control; type: organism-based; set-up: dose 75 mg/kg; settings: in vivo
[13] = tested on: Mus musculus; test: Toxicity in ICR-SCID mouse heart assessed as […] level at 50 mg/kg administered 3 times per week for 4 weeks measured after 24 hrs of last dose relative to untreated control; type: organism-based; set-up: dose 50 mg/kg; settings: in vivo
[14] = tested on: Mus musculus; test: Hepatotoxicity in ICR-SCID mouse liver assessed as alanine aminotransferase level at 100 mg/kg administered 3 times per week for 4 weeks measured after 24 hrs of last dose relative to untreated control; type: toxicity, organism-based; set-up: dose 100 mg/kg; settings: in vivo
[15] = tested on: Mus musculus; test: Hepatotoxicity in ICR-SCID mouse liver assessed as bilirubin level at 75 mg/kg administered 3 times per week for 4 weeks measured after 24 hrs of last dose relative to untreated control; type: toxicity, organism-based; set-up: dose 75 mg/kg; settings: in vivo
[16] = tested on: Mus musculus; test: Hepatotoxicity in ICR-SCID mouse liver assessed as alkaline phosphatase level at 75 mg/kg administered 3 times per week for 4 weeks measured after 24 hrs of last dose relative to untreated control; type: toxicity, organism-based; set-up: dose 75 mg/kg; settings: in vivo
[17] = tested on: Mus musculus; test: Toxicity in ICR-SCID mouse heart assessed as cholesterol level at 50 mg/kg administered 3 times per week for 4 weeks measured after 24 hrs of last dose relative to untreated control; type: organism-based; set-up: dose 50 mg/kg; settings: in vivo
[18] = tested on: Mus musculus; test: Hepatotoxicity in ICR-SCID mouse liver assessed as aspartate aminotransferase level at 50 mg/kg administered 3 times per week for 4 weeks measured after 24 hrs of last dose relative to untreated control; type: toxicity, organism-based; set-up: dose 50 mg/kg; settings: in vivo
[19] = tested on: Mus musculus; test: Toxicity in ICR-SCID mouse heart assessed as […] level at 75 mg/kg administered 3 times per week for 4 weeks measured after 24 hrs of last dose relative to untreated control; type: organism-based; set-up: dose 75 mg/kg; settings: in vivo
[20] = tested on: Mus musculus; test: Hepatotoxicity in ICR-SCID mouse liver assessed as alkaline phosphatase level at 100 mg/kg administered 3 times per week for 4 weeks measured after 24 hrs of last dose relative to untreated control; type: toxicity, organism-based; set-up: dose 100 mg/kg; settings: in vivo
[21] = tested on: Mus musculus; test: Toxicity in ICR-SCID mouse kidney assessed as creatinine level at 50 mg/kg administered 3 times per week for 4 weeks measured after 24 hrs of last dose relative to untreated control; type: organism-based; set-up: dose 50 mg/kg; settings: in vivo
[22] = tested on: Mus musculus; test: Hepatotoxicity in ICR-SCID mouse liver assessed as alanine aminotransferase level at 50 mg/kg administered 3 times per week for 4 weeks measured after 24 hrs of last dose relative to untreated control; type: toxicity, organism-based; set-up: dose 50 mg/kg; settings: in vivo
[23] = tested on: Mus musculus; test: Hepatotoxicity in ICR-SCID mouse liver assessed as bilirubin level at 100 mg/kg administered 3 times per week for 4 weeks measured after 24 hrs of last dose relative to untreated control; type: toxicity, organism-based; set-up: dose 100 mg/kg; settings: in vivo
[24] = tested on: Mus musculus; test: Hepatotoxicity in ICR-SCID mouse liver assessed as alkaline phosphatase level at 50 mg/kg administered 3 times per week for 4 weeks measured after 24 hrs of last dose relative to untreated control; type: toxicity, organism-based; set-up: dose 50 mg/kg; settings: in vivo
[25] = tested on: MV4-11; test: Growth inhibition of human MV4-11 cells assessed as ATP level after 4 days; type: functional; settings: MV4-11, 96 h
[26] = tested on: Mus musculus; test: Hepatotoxicity in ICR-SCID mouse liver assessed as aspartate aminotransferase level at 100 mg/kg administered 3 times per week for 4 weeks measured after 24 hrs of last dose relative to untreated control; type: toxicity, organism-based; set-up: dose 100 mg/kg; settings: in vivo
[27] = tested on: Mus musculus; test: Hepatotoxicity in ICR-SCID mouse liver assessed as alanine aminotransferase level at 75 mg/kg administered 3 times per week for 4 weeks measured after 24 hrs of last dose relative to untreated control; type: toxicity, organism-based; set-up: dose 75 mg/kg; settings: in vivo
[28] = tested on: NCI-H1975; test: Growth inhibition of human tarceva and iressa-resistant NCI-H1975 cells assessed as ATP level after 4 days; type: functional; settings: NCI-H1975, 96 h
[29] = tested on: Mus musculus; test: Hepatotoxicity in ICR-SCID mouse liver assessed as bilirubin level at 50 mg/kg administered 3 times per week for 4 weeks measured after 24 hrs of last dose relative to untreated control; type: toxicity, organism-based; set-up: dose 50 mg/kg; settings: in vivo
[30] = tested on: Mus musculus; test: Hepatotoxicity in ICR-SCID mouse liver assessed as aspartate aminotransferase level at 75 mg/kg administered 3 times per week for 4 weeks measured after 24 hrs of last dose relative to untreated control; type: toxicity, organism-based; set-up: dose 75 mg/kg; settings: in vivo
[31] = tested on: NSCLC; test: Growth inhibition of human NSCLC cells assessed as ATP level after 4 days; type: functional, cell-based
[32] = species on record: Homo sapiens; test: Growth inhibition of human tarceva and iressa-resistant […] cells assessed as ATP level after 4 days; type: functional
[33] = tested on: PC-3; test: Growth inhibition of human PC3 cells assessed as ATP level after 4 days; type: functional, cell-based
[34] = tested on: HCT-116; test: Growth inhibition of human HCT116 cells assessed as ATP level after 4 days; type: functional; settings: HCT-116, 96 h
[35] = Growth inhibition of human MDA231 cells assessed as ATP level after 4 days; type: functional; settings: MDA-MB-231, 96 h

| SMILES | Activity [1] | solubility [2] [mg/mL] | GI50 [5] [nM] | GI50 [6] [nM] | GI50 [7] [nM] | GI50 [8] [nM] | GI50 [11] [nM] | GI50 [25] [nM] | other results |
| --- | --- | --- | --- | --- | --- | --- | --- | --- | --- |
| O=C1OCC/C=C/CC/C=C/C(=N/OCC(=O)N2CCCCC2)Cc2cc(OP(=O)([O-])[O-])cc(O)c21.[Na+].[Na+] | inactive | ≥ 80 | – | – | – | – | – | – | – |
| C[C@@H]1C/C=C/CC/C=C/C(=N/OCC(=O)N2CCCCC2)Cc2cc(OP(=O)([O-])[O-])cc(OP(=O)([O-])[O-])c2C(=O)O1.[Na+].[Na+].[Na+].[Na+] | inactive | > 100 | – | – | – | – | – | – | Cmax [3]: 3840 ng/g; Drug uptake [4]: 12469 ng/g |
| O=C1OCC/C=C/CC/C=C/C(=N/OCC(=O)N2CCCCC2)Cc2cc(OCOP(=O)([O-])[O-])cc(O)c21.[Na+].[Na+] | inactive | ≥ 80 | – | – | – | – | – | – | – |
| C[C@@H]1C/C=C/CC/C=C/C(=N/OCC(=O)N2CCCCC2)Cc2cc(OP(=O)([O-])[O-])cc(O)c2C(=O)O1.[Na+].[Na+] | inactive | ≥ 80 | – | – | – | – | – | – | – |
| O=C1OCC/C=C/CC/C=C/C(=N/OCC(=O)N2CCCCC2)Cc2c(Cl)c(OP(=O)([O-])[O-])cc(O)c21.[Na+].[Na+] | inactive | ≥ 80 | > 10000 | 14 | 19 | 37 | – | – | – |
| O=C1OCC/C=C/CC/C=C/C(=N/OCC(=O)N2CCCCC2)Cc2c(Cl)c(O)cc(OP(=O)([O-])[O-])c21.[Na+].[Na+] | inactive | ≥ 80 | – | – | – | – | – | – | – |
| C=CCNC1=C2C[C@@H](C)C[C@H](OC)[C@H](O)[C@@H](C)/C=C(\C)[C@H](OC(N)=O)[C@@H](OC)/C=C\C=C(/C)C(=O)NC(=CC1=O)C2=O (stereo in doubt) [TANESPIMYCIN] | – | – | – | 5 | 1 | 780 | 48 | 11 | GI50 [9]: 56 nM; Activity [10]: 97.5 mg/dL; Activity [12]: 0.2 mg/dL; Activity [13]: 64.7 U/L; Activity [14]: 11134 U/L; Activity [15]: 0.25 mg/dL; Activity [16]: 143.3 U/L; Activity [17]: 105.3 mg/dL; Activity [18]: 216 U/L; Activity [19]: 166 U/L; Activity [20]: 131.3 U/L; Activity [21]: 0.2 mg/dL; Activity [22]: 175.3 U/L; Activity [23]: 1.1 mg/dL; Activity [24]: 128.3 U/L; Activity [26]: 10611.3 U/L; Activity [27]: 755.7 U/L; GI50 [28]: 35 nM; Activity [29]: 0.2 mg/dL; Activity [30]: 1058.3 U/L |
| O=C1OCC/C=C/CC/C=C/C(=N/OCC(=O)N2CCCCC2)Cc2cc(O)cc(O)c21 [POCHOXIME B] | – | – | 15 | 2 | 1 | 2 | 4 | 2 | Activity [31]: Active; Activity [32]: Active; Activity [33]: Active; GI50 [34]: 11 nM; GI50 [35]: 2 nM |
| C[C@@H]1C/C=C/CC/C=C/C(=N/OCC(=O)N2CCCCC2)Cc2cc(O)cc(O)c2C(=O)O1 [POCHOXIME C] | – | – | 18 | 6 | 2 | 6 | 7 | 3 | Activity [31]: Active; Activity [32]: Active; Activity [33]: Active; GI50 [35]: 6 nM |
